{
  "source": "patent US20110052556A1",
  "about": "“PHARMACEUTICAL COMPOSITION COMPRISING RACETAM AND CARNITINE AND PROCESS FOR ITS PREPARATION” (Biolab Sanus Farmaceutical Ltda, priority 2008, published 2011)",
  "system": "mitochondria isolated from liver of rat",
  "assay": "Protection against mitochondrial swelling induced by statins",
  "type": "biochemical",
  "experimental": "Mitochondria were isolated from adult rat liver (MFR) using the technique of differential centrifugation, according to […] and HOGEBOOM (1951), after a fast of 12 h. The liver, removed after death of the animal by cerebral concussion, was wash in a 250 mM saccharose solution containing buffer 10 mM HEPES pH 7.2 and 0.5 mM EGTA, and chopped with a scissors and homogenized in a Potter-Elvehjem homogeneizer. The material was centrifuged at 2500×g for 10 minutes. The resulting supernatant was centrifuged for 10 minutes at 8000×g. The supernatant was discarded and the sediment resuspended in 250 mM saccharose, 5 mM HEPES pH 7.2, 0.3 mM EGTA, and centrifuged as the previous step. […]\nMitochondrial swelling was calculated based on the decrease in tubidity of a mitochondrial suspension measured at 520 nm in a Hitachi spectrometer model U-3000 for a time period between 0 and 800 seconds.\nThis procedure of evaluation of mitochondria modification is based on fact that the mitochondria suspensions are turbid and scatter incident light. […] A spectrofotometric measurement of the absorbance reduction at 540 nm (Ca^2+-dependent NAD(P)^+-induced alterations in membrane permeability of the mitochondria. Integration of Mitochondrial Function, Ed. J. Lemasters, Plenum, New York, pp. 535-542) is made in a spectrophotometer connected to a potentiometric recorder. […]",
  "data": [
    {"smiles": "C[N+](C)(C)C[C@H](O)CC(=O)[O-]", "note": "[L-carnitine]", "values": [
      {"measurement": "smallest dose that presented some protective effect on mitochondrial swelling induced by statins", "setting": "swelling induced by Simvastatin, Pravastatin and Lovastatin", "value": 0.5, "unit": "µg/mL"}
    ]},
    {"smiles": "COC1=C(OC)C(=O)C(C/C=C(\\C)CC/C=C(\\C)CC/C=C(\\C)CC/C=C(\\C)CC/C=C(\\C)CC/C=C(\\C)CC/C=C(\\C)CC/C=C(\\C)CC/C=C(\\C)CCC=C(C)C)=C(C)C1=O", "note": "[coenzyme Q10, 2,3,dimethoxyl-5-methyl-6-decaprenil-1,4-benzoquinone]", "values": [
      {"measurement": "protection against mitochondria swelling induced by Simvastatin", "setting": "MFR 0.5 mg/ml, Piracar 0.25/0.65 μg/ml, CoQ 5 μg/ml, FIG. 5", "value": "effect of the addition of coenzyme Q10 in the protection against mitochondria swelling"}
    ]}
  ]
}
